In series [1] the test system is human mamma carcinoma MT3-ADR. The series can be described thus: Tumor growth inhibition, s.c. MT3-ADR xenografts in nude mice (doxorubicin conjugates). The series is classed as in vivo, NMRI:nu/nu mice. As to conditions: Table 14; 8 mg/kg/inj. i.v., treatment d 10. From the text:
(§1) For all in vivo studies in which doxorubicin conjugates wer administred, adult female NMRI:nu/nu mice (TACONIC Europe, Lille Skensved, Denmark) were used throughout the study.
(§2) The human breast cancer carcinoma MT-3, human ovarian cancer carcinoma ovcar-3 and human mamma carcinoma MT3-ADR were used as s.c. xenotransplantation model in immunodeficient female […] mice (see table 17).
(§3) The cells were obtained from ATCC and are cryo-preserved within the EPO tumor bank. They were thawed, expanded in vitro and transplanted as cell suspension subcutaneously (s.c.) in female NMRI:nu/nu mice. The tumor lines MT-3, ovcar-3 and MT3-ADR are used for testing new anticancer drugs or novel therapeutic strategies. It was therefore selected for this study. MT-3, ovcar-3 and MT3-ADR xenografts are growing relatively fast and uniform.
(§4) For experimental use 5*10^6 to 10^7 tumor cells/mouse from the in vitro passage were transplanted s.c. into the flank of each of 10 mice/group at day 0.
(§5) At palpable tumor size (30-100 mm^3) treatment started. The application volume was 0.2 ml/20 g mouse body weight. The test compounds, the vehicle controls and the reference compounds were all given intravenously (i.v.).
(§6) Tumor growth inhibition was used as therapeutic parameter. Additionally, body weight change was determined as signs for toxicity (particularly, potential hematological or gastrointestinal side effects).
(§7) Tumor diameters were measured twice weekly with a caliper. Tumor volumes were calculated according to V=(length×(width)^2)/2. For calculation of the relative tumor volume (RTV) the tumor volumes at each measurement day were related to the day of first treatment. At each measurement day the median and mean tumor volumes per group and also the treated to control (T/C) values in percent were calculated (Table 10 to 15).
(§8) Descriptive statistics were performed on the data of body weight and tumor volume. […] Statistical evaluation was performed with the U-test of Mann and Whitney with a significance level of p≦0.05, using the Windows program […] 6. […]

A short description of series [2]: Body weight change and toxic deaths in xenograft-bearing mice (doxorubicin studies). The series is classed as in vivo, NMRI:nu/nu mice. As to conditions: for Toxic deaths: 7 mice. As to the method: as §1, §5, §6
Individual body weights of mice were determined twice weekly and mean body weight per group was related to the initial value in percent (body weight change, BWC).
On the day of necropsy the mice were sacrificed by cervical dislocation and inspected for gross organ changes.
(§9) Tables 10 to 15 summarize the results for the tested, Doxorubicin conjugates and the reference compound Doxorubicin.
The loss of body weight is known to be an indicator of gastro-intestinal and hepatotoxicity of the tested compound.

Series [3] deals with human breast cancer carcinoma MT-3. The series can be described thus: Tumor growth inhibition, s.c. MT-3 xenografts in nude mice (doxorubicin conjugates). It counts as in vivo, NMRI:nu/nu mice. As to conditions: 8 mg/kg/inj. i.v.
From the text: as §1, §2, §3, §4, §5, §6, §7
Descriptive statistics were performed on the data of body weight and tumor volume. […] Statistical evaluation was performed with the U-test of Mann and Whitney with a significance level of p≦0.05, using the Windows program […] 6.
The tested Doxorubicin conjugates CDx1 to CDx15 were obtained as described herein above and were kept in a freeze-dried form at −20° C. until the use. Before administration, the conjugates were dissolved in saline solution by vortexing in combination with centrifugation until a clear solution of the necessary concentration of the drug was obtained. The obtained solutions were prepared and injected under sterile conditions.
The reference compound was Doxorubicin (which is, for example, available as Doxorubicin NC® from Neocorp). Doxorubicin was stored in aliquots at 4° C. in the dark and diluted in saline before administration.
as §9

Series [4] has as its system human ovarian cancer carcinoma ovcar-3. The series can be described thus: Tumor growth inhibition, s.c. ovcar-3 xenografts in nude mice (doxorubicin conjugates). The series is classed as in vivo, NMRI:nu/nu mice. Particulars: Table 13; 8 mg/kg/inj. i.v., treatment d 5.
From the text: as §1, §2, §3, §4, §5, §6, §7, §8

Series [5] has as its system human breast cancer carcinoma MT-3. The series can be described thus: Tumor growth inhibition, s.c. MT-3 xenografts in nude mice (epirubicin and idarubicin conjugates). It counts as in vivo, NMRI-nu/nu nude mice. Particulars: MT-3 subtype obtained from a different laboratory; unmodified drug. Here is the method:
All experiments were performed using 5-6 weeks old female NMRI^−nu/nu nude mice (approximate weight: 30 g after acclimatization). Mice were maintained in individual ventilated cages (IVC, max. 3 mice/cage) at constant temperature and humidity. Animal weights were taken every other day (Monday, Wednesday and Friday). Animal behavior was monitored daily. At study end, animals were sacrificed and in case the tumor volume was measured a necropsy was performed.
Monolayers of MT-3 cells were grown in DMEM 4500 with phenol red supplement with 10% FCS, 1% L-Glutamine, 100 units penicillin/ml, and 100 μg of streptomycin/ml. MT-3 cells were cultured in a humidified atmosphere of 90% air and 10% carbon dioxide at 37° C. Media were routinely changed every 3 days.
For experimental use 5×10^6 to 10^7 tumor cells/mouse from the in vitro passage were transplanted s.c. into the flank of each of 10 mice/group at day 0.
At palpable tumor size (30-100 mm^3) treatment was started. The application volume was 0.2 ml/20 g mouse body weight. The test compounds, the vehicle controls and the reference compounds were all given intravenously (i.v.).
Tumor growth inhibition was used as therapeutic parameter. Additionally, body weight change was determined as signs for toxicity (particularly, potential hematological or gastrointestinal side effects). […]

Setting [6] is: Table 13, ovcar-3 model, 8 mg/kg/inj. i.v., treatment d 5.
[7] abbreviates: Table 14, MT3-ADR model, 8 mg/kg/inj. i.v., treatment d 10.

Each structure is given as a SMILES string. Marks after values point to notes of the source that are not given here.

`COc1cccc2c1C(=O)c1c(O)c3c(c(O)c1C2=O)C[C@@](O)(C(=O)CO)C[C@@H]3O[C@H]1C[C@H](N)[C@H](O)[C@H](C)O1` [Doxorubicin]: in series [1], the “RTV T/C (%) Optimum” value turned out to be 58.4%, the “RTV T/C (%) Optimum (at day)” value was “(29) day” and the “Tumor growth RTV d 31” value is on record as 15.3 +/− 5.9*. Moreover, the “BWC (%) (d 10/d 28)” value in series [2] (Table 11, MT-3 model, 8 mg/kg/inj. i.v., treatment d 10) is recorded as 2%. The “BWC [%] (at day)” value in series [2] (Table 12, MT-3 model, 8 mg/kg/inj. i.v., treatment d 7) is “(19) day”. The “BWC [%]” value in series [2] (Table 12, MT-3 model, 8 mg/kg/inj. i.v., treatment d 7, maximum body weight loss) was −2%. In series [2] (setting [6]), the “BWC [%] (at day)” value is recorded as “(7) day” and the Toxic deaths is 0. In series [2] (Table 13, ovcar-3 model, 8 mg/kg/inj. i.v., treatment d 5, maximum body weight loss), the “BWC [%]” value is given as −4%. In series [2] (setting [7]), the “BWC [%] (at day)” value is “(25) day” and the Toxic deaths is listed as 0. In addition, in series [2] (Table 14, MT3-ADR model, 8 mg/kg/inj. i.v., treatment d 10, maximum body weight loss), the “BWC [%]” value is reported as −8%. The “BWC (%) (d 7/d 20)” value in series [2] (Table 15, MT-3 model, 8 mg/kg/inj. i.v., treatment d 7) is reported as −6%. In series [2] (mouse, in vivo, iv, 8 mg/kg), the “BWC (%): day of maximum body weight loss” value is given as “(d 24)” and the “BWC [%]” value is given as −8%. Moreover, in series [3] (Table 10, treatment d 7, 14), the “T/C (%) (TV) at the end” value is recorded as 1.16 +/− 0.35%, the “T/C (%) Optimum” value was 32.2%, the “T/C (%) Optimum (at day)” value was “(18) day” and the “Tumor growth RTV d 28” value is on record as 10.8 +/− 3.7. For the same molecule, in series [3] (Table 11, treatment d 10), the “T/C (%) Optimum” value worked out at 30%, the “T/C (%) Optimum (at day)” value is “(21) day” and the “Tumor growth RTV d 28” value is 4.3 +/− 3.4. Also, in series [3] (Table 12, treatment d 7), the “RTV T/C (%) Optimum” value is reported as 39.2%, the “RTV T/C (%) Optimum (at day)” value is “(29) day” and the “Tumor growth RTV d 33” value is 5.59 +/− 0.78*. For the same molecule, in series [3] (Table 15, treatment d 7), the “T/C (%) Optimum” value was found to be 37.8%, the “T/C (%) Optimum (at day)” value is recorded as “(13) day” and the “Tumor growth RTV d 20” value is 8.1 +/− 2.1*. Moreover, in series [4], the “RTV T/C (%) Optimum” value is recorded as 37.1%, the “RTV T/C (%) Optimum (at day)” value was “(19) day” and the “Tumor growth RTV d 39” value is on record as 9.86 +/− 7.98.
For the molecule `COc1cccc2c1C(=O)c1c(O)c3c(c(O)c1C2=O)C[C@@](O)(C(=O)CO)C[C@@H]3O[C@H]1C[C@H](N)[C@@H](O)[C@H](C)O1` [Epirubicin], the “sensibility of the MT-3 subtype towards anthracycline therapy” value in series [5] is “no sensibility towards anthracycline therapy”.
The same measure, in the same setting: in the case of `CC(=O)[C@]1(O)Cc2c(O)c3c(c(O)c2[C@@H](O[C@H]2C[C@H](N)[C@H](O)[C@H](C)O2)C1)C(=O)c1ccccc1C3=O` [Idarubicin] it was “no sensibility towards anthracycline therapy”.

The values above are taken from patent publication US20130178437A1, “CONJUGATES COMPRISING HYDROXYALKYL STARCH AND A CYTOTOXIC AGENT AND PROCESS FOR THEIR PREPARATION” (priority 2010, published 2013).
